Test results from patent US20240018128A1, “PESTICIDALLY ACTIVE HETEROCYCLIC DERIVATIVES WITH SULFUR CONTAINING SUBSTITUENTS” (SYNGENTA CROP PROTECTION AG, priority 2020, published 2024).

Columns and labels:
Type in all cases: in vivo
[1] = system: Euschistus heros (neotropical brown stink bug); test: Example B2: Activity against Euschistus heros (neotropical brown stink bug); conditions: 120 h, application rate 200 ppm, soybean leaves sprayed, N2 nymphs, 5 days after infestation, read-out: effect in at least one of the two categories (mortality or growth inhibition)
Description: Example B2: Activity Against Euschistus heros (Neotropical Brown Stink Bug)
Soybean leaves on agar in 24-well microtiter plates were sprayed with aqueous test solutions prepared from 10,000 ppm DMSO stock solutions. After drying the leaves were infested with N2 nymphs. The samples were assessed for mortality and growth inhibition in comparison to untreated samples 5 days after infestation.

[2] = system: Spodoptera littoralis (Egyptian cotton leaf worm); test: Example B6: Activity against Spodoptera littoralis (Egyptian cotton leaf worm); conditions: foliar, 72 h, application rate 200 ppm, cotton leaf discs sprayed, L1 larvae, 3 days after infestation, read-out: control (mortality, anti-feeding effect or growth inhibition)
Description: Example B6: Activity Against Spodoptera littoralis (Egyptian Cotton Leaf Worm)
Cotton leaf discs were placed onto agar in 24-well microtiter plates and sprayed with aqueous test solutions prepared from 10,000 ppm DMSO stock solutions. After drying the leaf discs were infested with five L1 larvae. The samples were assessed for mortality, anti-feeding effect, and growth inhibition in comparison to untreated samples 3 days after infestation. Control of Spodoptera littoralis by a test sample is given when at least one of the categories mortality, anti-feedant effect, and growth inhibition is higher than the untreated sample.

[3] = system: Myzus persicae (green peach aphid); test: Example B4: Activity against Myzus persicae (green peach aphid), feeding/contact activity; conditions: foliar, 144 h, application rate 200 ppm, sunflower leaf discs sprayed, aphid population of mixed ages, 6 days after infestation
Description: Example B4: Activity Against Myzus persicae (Green Peach Aphid) Feeding/Contact Activity
Sunflower leaf discs were placed onto agar in a 24-well microtiter plate and sprayed with aqueous test solutions prepared from 10,000 ppm DMSO stock solutions. After drying, the leaf discs were infested with an aphid population of mixed ages. The samples were assessed for mortality 6 days after infestation.

[4] = system: Diabrotica balteata (corn root worm); test: Example B1: Activity against Diabrotica balteata (corn root worm); conditions: 96 h, application rate 200 ppm, maize sprouts sprayed, L2 larvae, 4 days after infestation, read-out: effect in at least one of the two categories (mortality or growth inhibition)
Description: Example B1: Activity Against Diabrotica Balteata (Corn Root Worm)
Maize sprouts placed onto an agar layer in 24-well microtiter plates were treated with aqueous test solutions prepared from 10,000 ppm DMSO stock solutions by spraying. After drying, the plates were infested with L2 larvae (6 to 10 per well). The samples were assessed for mortality and growth inhibition in comparison to untreated samples 4 days after infestation.

[5] = system: Myzus persicae (green peach aphid); test: Example B9: Activity against Myzus persicae (green peach aphid), systemic activity; conditions: 144 h, test rate 24 ppm, roots of infested pea seedlings placed into test solution, 6 days
Description: Example B9: Activity Against Myzus persicae (Green Peach Aphid). Systemic Activity
Roots of pea seedlings infested with an aphid population of mixed ages were placed directly into aqueous test solutions prepared from 10,000 DMSO stock solutions. The samples were assessed for mortality 6 days after placing seedlings into test solutions.

[6] = system: Chilo suppressalis (striped rice stemborer); test: Example B8: Activity against Chilo suppressalis (striped rice stemborer); conditions: 144 h, application rate 200 ppm, artificial diet treated by pipetting, L2 larvae, 6 days after infestation, read-out: control (mortality, anti-feeding effect or growth inhibition)
Description: Example B8: Activity Against Chilo suppressalis (Striped Rice Stemborer)
24-well microtiter plates with artificial diet were treated with aqueous test solutions prepared from 10,000 ppm DMSO stock solutions by pipetting. After drying, the plates were infested with L2 larvae (6-8 per well). The samples were assessed for mortality, anti-feeding effect, and growth inhibition in comparison to untreated samples 6 days after infestation. Control of Chilo suppressalis by a test sample is given when at least one of the categories mortality, anti-feedant effect, and growth inhibition is higher than the untreated sample.

[7] = system: Plutella xylostella (diamond back moth); test: Example B5: Activity against Plutella xylostella (diamond back moth); conditions: 192 h, application rate 200 ppm, artificial diet treated by pipetting, eggs, 8 days after infestation, read-out: effect in at least one of the two categories (mortality or growth inhibition)
Description: Example B5: Activity Against Plutella xylostella (Diamond Back Moth)
24-well microtiter plates with artificial diet were treated with aqueous test solutions prepared from 10,000 ppm DMSO stock solutions by pipetting. After drying, Plutella eggs were pipetted through a plastic stencil onto a gel blotting paper and the plate was closed with it. The samples were assessed for mortality and growth inhibition in comparison to untreated samples 8 days after infestation. The following compounds gave an effect of at least 80% in at least one of the two categories (mortality or growth inhibition) at an application rate of 200 ppm: P1, P2, P4, P5, P6, P7, P9, P10, P11, P12, P13, P14, P15, P16, P17, P18.

CCS(=O)(=O)c1c(N2Cc3ncc(C(F)(F)F)cc3C2=O)nc(-c2cnn(C3CC3)c2)n1C [Compound P2, 6-[2-(1-cyclopropylpyrazol-4-yl)-5-ethylsulfonyl-1-methyl-imidazol-4-yl]-3-(trifluoromethyl)-7H-pyrrolo[3,4-b]pyridin-5-one]
≥ 80%: percent effect (mortality or growth inhibition) at 200 ppm [1] | control at 200 ppm [2] | mortality at 200 ppm [3] | mortality or growth inhibition at 200 ppm [4] | mortality at 24 ppm [5] | control at 200 ppm [6] | effect (mortality or growth inhibition) at 200 ppm [7]

CCS(=O)(=O)c1c(N2Cc3ncc(C(F)(F)F)cc3C2=O)nc(C2CC(C3CC3)=NO2)n1C (stereo not shown) [Compound P3, 6-[2-(3-cyclopropyl-4,5-dihydroisoxazol-5-yl)-5-ethylsulfonyl-1-methyl-imidazol-4-yl]-3-(trifluoromethyl)-7H-pyrrolo[3,4-b]pyridin-5-one]
≥ 80%: control at 200 ppm [6]

CCS(=O)(=O)c1c(N2Cc3ncc(C(F)(F)F)cc3C2=O)nc(-c2cnn(CC3(C#N)CC3)c2)n1C [Compound P4, 1-[[4-[5-ethylsulfonyl-1-methyl-4-[5-oxo-3-(trifluoromethyl)-7H-pyrrolo[3,4-b]pyridin-6-yl]imidazol-2-yl]pyrazol-1-yl]methyl]cyclopropane-carbonitrile]
≥ 80%: percent effect (mortality or growth inhibition) at 200 ppm [1] | mortality at 200 ppm [3] | mortality at 24 ppm [5] | control at 200 ppm [6] | effect (mortality or growth inhibition) at 200 ppm [7]

CCS(=O)(=O)c1c(N2Cc3ncc(C(F)(F)F)cc3C2=O)nc(-c2cnn(CC(F)F)c2)n1C [Compound P5, 6-[2-[1-(2,2-difluoroethyl)pyrazol-4-yl]-5-ethylsulfonyl-1-methyl-imidazol-4-yl]-3-(trifluoromethyl)-7H-pyrrolo[3,4-b]pyridin-5-one]
≥ 80%: percent effect (mortality or growth inhibition) at 200 ppm [1] | control at 200 ppm [2] | mortality at 200 ppm [3] | mortality at 24 ppm [5] | control at 200 ppm [6] | effect (mortality or growth inhibition) at 200 ppm [7]

CCS(=O)(=O)c1c(N2Cc3ncc(C(F)(F)F)cc3C2=O)nc(OCC(F)(F)F)n1C [Compound P6, 6-[5-ethylsulfonyl-1-methyl-2-(2,2,2-trifluoroethoxy)imidazol-4-yl]-3-(trifluoromethyl)-7H-pyrrolo[3,4-b]pyridin-5-one]
≥ 80%: control at 200 ppm [2] | mortality at 200 ppm [3] | mortality or growth inhibition at 200 ppm [4] | mortality at 24 ppm [5] | control at 200 ppm [6] | effect (mortality or growth inhibition) at 200 ppm [7]

CCS(=O)(=O)c1c(N2Cc3ccc(OC(F)(F)F)cc3C2=O)nc(-c2cncnc2)n1C [Compound P7, 2-(5-ethylsulfonyl-1-methyl-2-pyrimidin-5-yl-imidazol-4-yl)-6-(trifluoromethoxy)isoindolin-1-one]
≥ 80%: control at 200 ppm [2] | control at 200 ppm [6] | effect (mortality or growth inhibition) at 200 ppm [7]

CCS(=O)(=O)c1c(N2Cc3ncc(C(F)(F)F)cc3C2=O)nc(-c2cncnc2)n1C [Compound P8, 6-(5-ethylsulfonyl-1-methyl-2-pyrimidin-5-yl-imidazol-4-yl)-3-(trifluoromethyl)-7H-pyrrolo[3,4-b]pyridin-5-one]
≥ 80%: mortality at 24 ppm [5]

CCS(=O)(=O)c1c(N2Cc3ncc(C(F)(F)F)cc3C2=O)nc(-c2cnn(CC3CC3)c2)n1C [Compound P9, 6-[2-[1-(cyclopropylmethyl)pyrazol-4-yl]-5-ethylsulfonyl-1-methyl-imidazol-4-yl]-3-(trifluoromethyl)-7H-pyrrolo[3,4-b]pyridin-5-one]
≥ 80%: percent effect (mortality or growth inhibition) at 200 ppm [1] | control at 200 ppm [2] | mortality at 200 ppm [3] | mortality or growth inhibition at 200 ppm [4] | mortality at 24 ppm [5] | control at 200 ppm [6] | effect (mortality or growth inhibition) at 200 ppm [7]

CCS(=O)(=O)c1c(N2Cc3ccc(OC(F)(F)F)cc3C2=O)nc(-c2ncccn2)n1C [Compound P11, 2-(5-ethylsulfonyl-1-methyl-2-pyrimidin-2-yl-imidazol-4-yl)-6-(trifluoromethoxy)isoindolin-1-one]
≥ 80%: percent effect (mortality or growth inhibition) at 200 ppm [1] | mortality at 200 ppm [3] | mortality or growth inhibition at 200 ppm [4] | mortality at 24 ppm [5] | control at 200 ppm [6] | effect (mortality or growth inhibition) at 200 ppm [7]

CCS(=O)(=O)c1c(N2Cc3ncc(C(F)(F)F)cc3C2=O)nc(-c2ncccn2)n1C [Compound P12, 6-(5-ethylsulfonyl-1-methyl-2-pyrimidin-2-yl-imidazol-4-yl)-3-(trifluoromethyl)-7H-pyrrolo[3,4-b]pyridin-5-one]
≥ 80%: percent effect (mortality or growth inhibition) at 200 ppm [1] | mortality at 200 ppm [3] | mortality or growth inhibition at 200 ppm [4] | mortality at 24 ppm [5] | control at 200 ppm [6] | effect (mortality or growth inhibition) at 200 ppm [7]

CCS(=O)(=O)c1c(N2Cc3ncc(C(F)(F)F)cc3C2=O)nc(-n2cc(C(F)(F)F)cn2)n1C [Compound P14, 6-[5-ethylsulfonyl-1-methyl-2-[4-(trifluoromethyl)pyrazol-1-yl]imidazol-4-yl]-3-(trifluoromethyl)-7H-pyrrolo[3,4-b]pyridin-5-one]
≥ 80%: percent effect (mortality or growth inhibition) at 200 ppm [1] | control at 200 ppm [2] | mortality at 200 ppm [3] | mortality or growth inhibition at 200 ppm [4] | control at 200 ppm [6] | effect (mortality or growth inhibition) at 200 ppm [7]

CCS(=O)(=O)c1c(N2Cc3ncc(C(F)(F)F)cc3C2=O)nc(-n2ccc(C3CC3)n2)n1C [Compound P15, 6-[2-(3-cyclopropylpyrazol-1-yl)-5-ethylsulfonyl-1-methyl-imidazol-4-yl]-3-(trifluoromethyl)-7H-pyrrolo[3,4-b]pyridin-5-one]
≥ 80%: percent effect (mortality or growth inhibition) at 200 ppm [1] | control at 200 ppm [2] | mortality at 200 ppm [3] | mortality or growth inhibition at 200 ppm [4] | effect (mortality or growth inhibition) at 200 ppm [7]

CCS(=O)(=O)c1c(N2Cc3ncc(C(F)(F)F)cc3C2=O)nc(-n2ccc(Cl)n2)n1C [Compound P16, 6-[2-(3-chloropyrazol-1-yl)-5-ethylsulfonyl-1-methyl-imidazol-4-yl]-3-(trifluoromethyl)-7H-pyrrolo[3,4-b]pyridin-5-one]
≥ 80%: percent effect (mortality or growth inhibition) at 200 ppm [1] | control at 200 ppm [2] | mortality at 200 ppm [3] | mortality or growth inhibition at 200 ppm [4] | control at 200 ppm [6] | effect (mortality or growth inhibition) at 200 ppm [7]

CCS(=O)(=O)c1c(N2Cc3ncc(C(F)(F)F)cc3C2=O)nc(-c2ccc(C3(C#N)CC3)cc2)n1C [Compound P18, 1-[4-[5-ethylsulfonyl-1-methyl-4-[5-oxo-3-(trifluoromethyl)-7H-pyrrolo[3,4-b]pyridin-6-yl]imidazol-2-yl]phenyl]cyclopropane-carbonitrile]
≥ 80%: control at 200 ppm [2] | mortality at 200 ppm [3] | mortality or growth inhibition at 200 ppm [4] | control at 200 ppm [6] | effect (mortality or growth inhibition) at 200 ppm [7]
